# Experiments:
# Lp-PLA2 in human plasma = target: T1, Lp-PLA2 in human plasma (Homo sapiens, UniProt Q13093); assay: (3a) Lp-PLA2 human plasma Thio-PAF assay; type: biochemical; conditions: (3a) Thio-PAF assay, pooled human plasma; Examples 1-265 and 413-430 were tested here; read-out: pIC50 in the Lp-PLA2 human plasma assay (converted)
# T1 construct: from tissue; host or cells: pooled human plasma
# T1 sequence (Q13093 22-441): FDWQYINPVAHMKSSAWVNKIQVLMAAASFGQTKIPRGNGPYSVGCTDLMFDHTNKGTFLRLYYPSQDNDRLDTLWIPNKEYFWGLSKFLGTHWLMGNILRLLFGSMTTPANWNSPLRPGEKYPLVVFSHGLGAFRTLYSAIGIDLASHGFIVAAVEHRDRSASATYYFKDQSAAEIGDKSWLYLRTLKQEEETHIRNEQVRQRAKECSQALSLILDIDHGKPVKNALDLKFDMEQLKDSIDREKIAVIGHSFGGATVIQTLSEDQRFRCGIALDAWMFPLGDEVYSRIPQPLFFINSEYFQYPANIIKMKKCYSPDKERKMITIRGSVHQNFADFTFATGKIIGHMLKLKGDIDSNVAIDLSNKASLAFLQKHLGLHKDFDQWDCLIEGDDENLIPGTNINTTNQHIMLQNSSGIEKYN
# Procedure, shortened: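 Endogenous Lp-PLA2 activity in frozen pooled human plasma measured as thiol release from 2-thio-PAF, detected by CPM fluorescence (ex 380/em 485). Compound preincubation 30 min; 2-min reaction in HEPES pH 7.4 buffer with NEM, stopped with 5% TFA, read 40 min later at room temperature; values as pIC50.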
# [1] = target: T2, recombinant human Lp-PLA2 (Homo sapiens, UniProt Q13093); assay: (1a) PED6 assay, recombinant human Lp-PLA2 (rhLp-PLA2); type: biochemical; conditions: Examples 1-167 and 413-430 were tested here, one experiment or average of multiple experiments, read-out: rhLp-PLA2 (pIC50) (converted)
# T2 sequence (Q13093 22-441): T1 sequence (Q13093 22-441)
# Source text: (1) Recombinant Human Lp-PLA2 Assays (rhLp-PLA2)
# N-((6-(2,4-Dinitrophenyl)amino)-hexanoyl)-2-(4,4-difluoro-5,7-dimethyl-4-bora-3a,4a-diaza-s-indacene-3-pentanoyl)-1-hexadecanoyl-sn-glycero-3-phosphoethanolamine, triethylammonium salt (PED6) is a commercially available fluorescently-labeled phospholipid, which is commercially available from Invitrogene and Molecular Probes. There is a quenching […] and a Bodipy fluorescein (FL) group in the sn2 position. Upon cleavage with Lp-PLA2, the Bodipy FL group is liberated and then may result in an increase in fluorescence. Inhibitors of Lp-PLA2 therefore prevent this cleavage and no fluorescent increase is observed.
# The PED6 assay was run as an unquenched 10 μL assay. The source plate containing the compounds to be tested was prepared by making 1:3 (by volume) serial dilution of the compounds within DMSO on 384-well microplate. Then, 0.01 μL of the compounds on compound source plate were transferred into 384 well Greiner 784076 (black) plates using ECHO liquid dispenser. 5 μL of recombinant human Lp-PLA2 enzyme (4 nM) rhLp-PLA2 in assay buffer of 50 mM HEPES, pH 7.4, 150 mM NaCl, 1 mM CHAPS) was added to each well of the plate. Plates were centrifuged for 10 sec at 500 rpm. After 30 minutes preincubation, 5 μL of substrate (4 μM PED6 [from 5 mM DMSO stock] in assay buffer of 50 mM HEPES, pH 7.4, 150 mM NaCl, 1 mM CHAPS) was added to 384 well Greiner 784076 (black) plates. Plates were centrifuged for 10 sec at 500 rpm. The plate was covered to protect it from light and incubated for 20 min at room temperature. The plates were read for fluorescence intensity at ex: 480/em: 540 using ViewLux microplate imager for Envision spectrofluroimeters. pIC50 data, curve and QC analysis was conducted by using XL fit module in Excel.
Structure (SMILES),IC50 (Lp-PLA2 in human plasma),IC50 [1]
"Cn1cc(Oc2c(F)cc(COc3cc4n(c(=O)n3)C[C@@H]3COCN43)cc2F)cn1 [Example E144, (R)-6-((3,5-difluoro-4-((1-methyl-1H-pyrazol-4-yl)oxy)benzyl)oxy)-10,10a-dihydro-1H-oxazolo[3′,4′:3,4]imidazo[1,2-c]pyrimidin-8(3H)-one]",≤ 10000 nM,≤ 100 nM
"N#Cc1cc(COc2cc3n(c(=O)n2)CC2CCCCN32)ccc1Oc1ccc(Cl)c(F)c1 (stereo not shown) [Example E24, 2-(4-Chloro-3-fluorophenoxy)-5-(((1-oxo-6,7,8,9,9a,10-hexahydro-1H pyrido-[1′,2′:3,4]imidazo[1,2-c]pyrimidin-3-yl)oxy)methyl)benzonitrile]",≤ 100 nM,≤ 1 nM
"O=c1nc(OCc2cc(F)c(OC3CN(CCC(F)(F)F)C3)c(F)c2)cc2n1C[C@@H]1CCCN21 [Example E97, (S)-3-((3,5-difluoro-4-((1-(3,3,3-trifluoropropyl)azetidin-3-yl)oxy)benzyl)oxy)-7,8,8a,9-tetra hydropyrrolo[1′,2′:3,4]imidazo[1,2-c]pyrimidin-1(6H)-one]",≤ 10000 nM,≤ 100 nM
"O=c1nc(OCc2ccc(F)cc2F)cc2n1C[C@H]1CCCN21 [Example E100, (R)-3-((2,4-difluorobenzyl)oxy)-7,8,8a,9-tetrahydropyrrolo[1,2′:3,4]imidazo[1,2-c] pyrimidin-1(6H)-one]",≤ 10000 nM,≤ 100 nM
"O=c1nc(OCc2cccc(F)c2F)cc2n1C[C@@H]1CCCCN21 [Example E58, (S)-3-((2,3-Difluorobenzyl)oxy)-6,7,8,9,9a,10-hexahydro-1H-pyrido[1′,2′:3,4]imidazo[1,2-c] pyrimidin-1-one]",≤ 10000 nM,≤ 100 nM
"O=c1nc(OCc2cc(F)c(Oc3cnc(C(F)(F)F)nc3)c(F)c2)cc2n1CC1COCCN21 (stereo not shown) [Example E110, 7-((3,5-Difluoro-4-((2-(trifluoromethyl)pyrimidin-5-yl)oxy)benzyl)oxy)-3,4,11,11a-tetra hydropyrimido[6′,1′:2,3]imidazo[5,1-c][1,4]oxazin-9(1H)-one]",≤ 100 nM,0.501 nM
"O=c1nc(OCc2cc(F)c(F)c(Cl)c2)cc2n1CC1CCCCN21 (stereo not shown) [Example E16, 3-((3-Chloro-4,5-difluorobenzyl)oxy)-6,7,8,9,9a,10-hexahydro-1H-pyrido[1′,2′:3,4] imidazo[1,2-c]pyrimidin-1-one]",≤ 10000 nM,≤ 100 nM
"O=c1nc(OCc2cc(F)c(Oc3ccnc(C(F)(F)F)c3)c(F)c2)cc2n1C[C@@H]1COCN21 [Example E142, (R)-6-((3,5-difluoro-4-((2-(trifluoromethyl)pyridin-4-yl)oxy)benzyl)oxy)-10,10a-dihydro-1H-oxazolo[3′,4′:3,4]imidazo[1,2-c]pyrimidin-8(3H)-one]",≤ 100 nM,≤ 1 nM
"O=c1nc(OCc2cc(F)cc(F)c2)cc2n1C[C@H]1COCN21 [Example E147, (S)-6-((3,5-difluorobenzyl)oxy)-10,10a-dihydro-1H-oxazolo[3′,4′:3,4]imidazo[1,2-c] pyrimidin-8(3H)-one]",≤ 10000 nM,≤ 100 nM
"O=c1nc(OCc2cc(F)c(OC3(CCF)CC3)c(F)c2)cc2n1C[C@H]1CCCCN21 [Example E62, (R)-3-((3,5-Difluoro-4-(1-(2-fluoroethyl)cyclopropoxy)benzyl)oxy)-6,7,8,9,9a,10-hexahydro-1H-pyrido[1′,2′:3,4]imidazo[1,2-c]pyrimidin-1-one]",≤ 10000 nM,≤ 100 nM
"Cc1ccc(Oc2c(F)cc(COc3cc4n(c(=O)n3)C[C@H]3COCCN43)cc2F)cn1 [Example E125, (S)-7-((3,5-difluoro-4-((6-methylpyridin-3-yl)oxy)benzyl)oxy)-3,4,11,11atetrahydropyrimido[6′,1′:2,3]imidazo[5,1-c][1,4]oxazin-9(1H)-one]",≤ 100 nM,0.0631 nM
"O=c1nc(OCc2ccc(F)cc2F)cc2n1CC1CCCCN21 (stereo not shown) [Example E8, 3-((2,4-Difluorobenzyl)oxy)-6,7,8,9,9a,10-hexahydro-1H-pyrido[1′,2′:3,4]imidazo[1,2-c] pyrimidin-1-one]",≤ 10000 nM,≤ 100 nM
"O=c1nc(OCc2cccc(F)c2)cc2n1C[C@H]1COCN21 [Example E148, (S)-6-((3-fluorobenzyl)oxy)-10,10a-dihydro-1H-oxazolo[3′,4′:3,4]imidazo[1,2-c]pyrimidin-8(3H)-one]",≤ 10000 nM,≤ 100 nM

# More lines, now with the values ahead:
IC50 (Lp-PLA2 in human plasma),IC50 [1],Structure (SMILES)
≤ 100 nM,≤ 1 nM,"N#Cc1cc(Oc2ccc(COc3cc4n(c(=O)n3)CC3CCCCN43)cc2F)ccc1Cl (stereo not shown) [Example E11, 2-Chloro-5-(2-fluoro-4-(((1-oxo-6,7,8,9,9a,10-hexahydro-1H-pyrido[1′,2′:3,4]imidazo[1,2-c]pyrimidin-3-yl)oxy)methyl)phenoxy)benzonitrile]"
≤ 10000 nM,≤ 100 nM,"Cc1cc(Oc2c(F)cc(COc3cc4n(c(=O)n3)C[C@H]3CCCN43)cc2F)ccn1 [Example E106, (R)-3-((3,5-difluoro-4-((2-methylpyridin-4-yl)oxy)benzyl)oxy)-7,8,8a,9-tetrahydro pyrrolo[1′,2′:3,4]imidazo[1,2-c]pyrimidin-1(6H)-one]"
≤ 10000 nM,≤ 100 nM,"Cc1cc(COc2cc3n(c(=O)n2)CC2CCCCN32)cc(F)c1F (stereo not shown) [Example E14, 3-((3,4-Difluoro-5-methylbenzyl)oxy)-6,7,8,9,9a,10-hexahydro-1H pyrido[1′,2′:3,4]imidazo-[1,2-c]pyrimidin-1-one]"
≤ 100 nM,≤ 1 nM,"O=c1nc(OCc2cc(F)c(Oc3cnc(C(F)(F)F)nc3)c(F)c2)cc2n1CC1CCCN21 (stereo not shown) [Example E90, 3-((3,5-Difluoro-4-((2-(trifluoromethyl)pyrimidin-5-yl)oxy)benzyl)oxy)-7,8,8a,9-tetrahydro pyrrolo[1′,2′:3,4]imidazo[1,2-c]pyrimidin-1(6H)-one]"
≤ 10000 nM,≤ 100 nM,"O=c1nc(OCc2cc(F)c(OC3CCCC(F)(F)C3)c(F)c2)cc2n1CC1CCCN21 (stereo not shown) [Example E92, 3-((4-((3,3-difluorocyclohexyl)oxy)-3,5-difluorobenzyl)oxy)-7,8,8a,9-tetrahydropyrrolo[1′,2′:3,4]imidazo[1,2-c]pyrimidin-1(6H)-one]"
≤ 10000 nM,≤ 100 nM,CN1c2cc(OCc3cccc(F)c3)nc(=O)n2CC12CCC2 [Example 413]
≤ 100 nM,≤ 100 nM,"O=c1nc(OCc2ccc(Oc3cnc(C(F)(F)F)nc3)c(F)c2)cc2n1CC1CCCCN21 (stereo not shown) [Example E43, 3-((3-fluoro-4-((2-(trifluoromethyl)pyrimidin-5-yl)oxy)benzyl)oxy)-6,7,8,9,9a,10-hexahydro-1H-pyrido[1′,2′:3,4]imidazo[1,2-c]pyrimidin-1-one]"
≤ 100 nM,≤ 1 nM,"N#Cc1cc(COc2cc3n(c(=O)n2)CC2COCCN32)ccc1Oc1ccc(F)c(C(F)(F)F)c1 (stereo not shown) [Example E111, 2-(4-Fluoro-3-(trifluoromethyl)phenoxy)-5-(((9-oxo-1,3,4,9,11,11a-hexahydropyrimido[6′,1′:2,3]imidazo[5,1-c][1,4]oxazin-7-yl)oxy)methyl)benzonitrile]"
≤ 100 nM,≤ 100 nM,"CN1c2cc(OCc3cc(F)c(F)c(F)c3)nc(=O)n2CC12CCCC2 [Example 414, 1′-methyl-7′-((3,4,5-trifluorobenzyl)oxy)-1′H-spiro[cyclopentane-1,2′-imidazo[1,2-c]pyrimidin]-5′(3′H)-one]"
≤ 10000 nM,≤ 100 nM,"Cn1cc(Oc2c(F)cc(COc3cc4n(c(=O)n3)C[C@H]3CCOCN43)cc2F)cn1 [Example E137, (R)-3-((3,5-difluoro-4-((1-methyl-1H-pyrazol-4-yl)oxy)benzyl)oxy)-8,9,9a,10-tetrahydropyrimido[6′,1′:2,3]imidazo[1,5-c][1,3]oxazin-1(6H)-one]"
